{"source": "patent US20130121921A1", "about": "“Rodent Therapeutic Model And Methods” (The Christus Stehlin Foundation For Cancer Research, priority 2011, published 2013)", "key": {"[1]": {"system": "humanized NSG mice", "assay": "toxicity of CPT given by gavage to humanized and non-humanized NSG mice (weight, blood cell counts)", "format": "in vivo, mouse", "method": "Once maximum engraftment is reached as measured in Example 1 or 2, initial validation experiments are performed. A reasonable number of doubly humanized mice are obtained within approximately 5 to 6 months from the start of the humanizing process, i.e., 10-12 NSG mice with a >80% human BM and a >60% HSA in their blood. […] Camptothecin (CPT) is administered by gavage to humanized and non-humanized mice. At normal pH, CPT exists in equilibrium between two states: lactone and carboxylate. In the mouse, equilibrium is around 50% for each isoform. However, in human blood, due to an affinity for human serum albumin (HSA), the equilibrium moves towards the carboxylate form, leaving only 3%-5% total CPT in the active lactone form, see Giovanella et al., Annals New York Academy of Sciences 922: 27-35, 2000. The double humanized mouse can act akin to a human in this respect. Higher and higher doses of CPT are administered starting with a dose of 0.5 mg/kg orally by gavage given daily for 5 days followed by 2 days of rest for 3 weeks. Animals are weighed twice a week and their weight recorded. Blood is taken twice a week and blood cells counted. If no toxicity is found, the dose is raised by 50% and the procedure repeated until toxicity is obtained."}, "[2]": {"system": "human tumors", "assay": "human tumors xenotransplanted subcutaneously in humanized and non-humanized NSG mice, treated at MTD of CPT", "format": "in vivo, mouse", "conditions": "non-humanized vs humanized group, each at its own MTD", "method": "Once a maximum tolerated dose (MTD) for humanized NSG mice and MTD for non-humanized ones is obtained using the procedure described in Example 3, final validation experiments are performed. Six human tumors are xenotransplanted subcutaneously on the dorsal flank in humanized and non-humanized NSG mice. Once the tumors become palpable, the animals are treated with the MTD dose of CPT of their group, i.e., the humanized mice with the humanized MTD and the non-humanized mice with their MTD. The tumors are measured with calipers twice a week and the results recorded. […] A human dose for CPT can be determined and suitability of the drug for treatment of humans can be determined. The experiments can be performed substituting one or more drugs in place of CPT. The experiments can be performed using one or more drugs in addition to CPT. The experiments can be performed by using introduction of human leukemia cancer cells or other non-solid tumor human cancer cells into the rodent instead of xenotransplantation of solid tumors. Such cancers can be evaluated based on alternative metrics such as cell count."}, "[3]": {"system": "human tumors", "assay": "xenograft test repeated in mice with higher percentage of human bone marrow and hepatocytes", "format": "in vivo, mouse", "conditions": "less humanized vs more humanized group", "method": "The procedures in any one or combination of Examples 1-4 are performed with mice having a higher percentage of human bone marrow and hepatocytes. Rather than having a non-human control, the control can be instead, or in addition, mice having the percentage of human bone marrow (and/or human cord blood) used in the experimental group in the first performance of the procedures. Double humanized mice are further supplemented with human or humanized intestinal enzymes to form a triply humanized mouse (bone marrow, liver, and intestinal enzymes), which is then be used as a predictor of human response to anticancer agents. A mouse having humanized intestinal enzymes can be constructed, for example, as described in van Herwaarden et al., J. Clin. Invest., 117 (11):3583-3592, 2007. […] A human dose for CPT can be redetermined and suitability of the drug for treatment of humans can be redetermined."}, "[4]": {"conditions": "in the mouse, normal pH; cited from earlier work"}, "[5]": {"target": "human serum albumin (HSA) (Homo sapiens, UniProt P02768)", "sequence (P02768 25-609)": "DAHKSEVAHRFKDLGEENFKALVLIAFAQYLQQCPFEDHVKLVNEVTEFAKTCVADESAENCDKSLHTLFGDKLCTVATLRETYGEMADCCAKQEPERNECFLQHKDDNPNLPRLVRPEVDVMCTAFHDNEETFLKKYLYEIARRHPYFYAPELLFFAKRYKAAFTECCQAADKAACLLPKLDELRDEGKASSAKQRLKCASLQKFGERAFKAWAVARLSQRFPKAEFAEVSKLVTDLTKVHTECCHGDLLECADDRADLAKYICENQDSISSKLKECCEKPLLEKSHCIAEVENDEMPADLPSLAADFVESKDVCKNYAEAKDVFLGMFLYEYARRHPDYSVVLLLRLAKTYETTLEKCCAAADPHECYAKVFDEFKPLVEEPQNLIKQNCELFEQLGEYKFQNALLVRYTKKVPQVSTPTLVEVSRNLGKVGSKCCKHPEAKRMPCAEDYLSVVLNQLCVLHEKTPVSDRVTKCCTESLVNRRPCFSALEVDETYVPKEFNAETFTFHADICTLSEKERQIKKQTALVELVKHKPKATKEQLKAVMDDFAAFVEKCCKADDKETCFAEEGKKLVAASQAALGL", "conditions": "human blood, equilibrium moved towards carboxylate by affinity for HSA; cited from earlier work"}}, "data": [{"compound": "CC[C@@]1(O)C(=O)OCc2c1cc1n(c2=O)Cc2cc3ccccc3nc2-1", "note": "[CPT, Camptothecin]", "values": [{"measurement": "sensitivity of human bone marrow cells present in the mouse", "setting": "[1]; human bone marrow cells vs mouse cells", "value": "more sensitive to camptothecin than mouse cells"}, {"measurement": "hematological toxicity of CPT", "setting": "[1]; humanized NSG mice, relation to percentage of human bone marrow", "value": "directly proportional to the percentage of human bone marrow"}, {"measurement": "toxicity of CPT for humanized mice", "setting": "[1]; oral gavage from 0.5 mg/kg daily x5, 2 days rest, 3 weeks, dose raised by 50%, humanized vs non-humanized mice", "value": "Higher toxicity"}, {"measurement": "anticancer activity (relative size of the tumors)", "setting": "[2]", "value": "much higher anticancer activity of CPT in the non-humanized group"}, {"measurement": "anticancer activity (relative size of the tumors)", "setting": "[3]", "value": "higher anticancer activity of CPT in the less humanized group"}, {"measurement": "equilibrium share of each isoform (lactone and carboxylate)", "setting": "[4]", "value": "around 50%"}, {"measurement": "total CPT in the active lactone form", "setting": "[5]", "value": "3%-5%"}]}]}
